Reference: US10508085B2, “Compounds and methods for IDO and TDO modulation, and indications therefor” (Plexxikon Inc., priority 2016, dated 2019)

How the values were obtained:
[1] = target: T1, human TDO (TDO-expressing HEK293 cells) (Homo sapiens, UniProt P48775); assay: Cell based kynurenine assay, TDO-expressing HEK293 cell clones; settings: TDO-expressing HEK293 cells, 24 hours, geometric mean; read-out: HEK293 TDO Kynurenine GMean IC50 (μM) (Cellular Assay)
T1 construct: expressed in transfected cells
T1 sequence (P48775 whole entry): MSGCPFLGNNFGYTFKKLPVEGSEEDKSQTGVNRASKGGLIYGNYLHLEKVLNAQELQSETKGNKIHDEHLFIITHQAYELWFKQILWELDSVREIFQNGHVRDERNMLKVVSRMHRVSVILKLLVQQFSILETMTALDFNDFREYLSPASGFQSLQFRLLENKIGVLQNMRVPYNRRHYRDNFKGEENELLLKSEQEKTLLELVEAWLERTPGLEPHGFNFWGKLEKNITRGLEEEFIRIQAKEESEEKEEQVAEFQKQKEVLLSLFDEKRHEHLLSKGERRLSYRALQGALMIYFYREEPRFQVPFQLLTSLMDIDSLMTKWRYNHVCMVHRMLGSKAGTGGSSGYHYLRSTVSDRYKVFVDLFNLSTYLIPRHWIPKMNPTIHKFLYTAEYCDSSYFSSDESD
In short: (§1)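 Kynurenine in culture supernatant read after 24 h compound exposure of HEK293 cells stably expressing human IDO1 or TDO. IC50 from nonlinear regression of % inhibition relative to 0.2% DMSO cell (high) and media-only (low) controls.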

[2] = target: T2, Human Indoleamine 2,3-dioxygenase (IDO) (Homo sapiens, UniProt P14902); assay: Human IDO enzymatic assay (kynurenine level); format: biochemical; settings: 6 nM IDO, 10 μM L-Trp; geometric mean; read-out: IDO1 GMean: IC50 (μM) (Biochemical Assay)
T2 construct: His tag (N); made in house; host or cells: E. coli
T2 sequence (P14902 whole entry): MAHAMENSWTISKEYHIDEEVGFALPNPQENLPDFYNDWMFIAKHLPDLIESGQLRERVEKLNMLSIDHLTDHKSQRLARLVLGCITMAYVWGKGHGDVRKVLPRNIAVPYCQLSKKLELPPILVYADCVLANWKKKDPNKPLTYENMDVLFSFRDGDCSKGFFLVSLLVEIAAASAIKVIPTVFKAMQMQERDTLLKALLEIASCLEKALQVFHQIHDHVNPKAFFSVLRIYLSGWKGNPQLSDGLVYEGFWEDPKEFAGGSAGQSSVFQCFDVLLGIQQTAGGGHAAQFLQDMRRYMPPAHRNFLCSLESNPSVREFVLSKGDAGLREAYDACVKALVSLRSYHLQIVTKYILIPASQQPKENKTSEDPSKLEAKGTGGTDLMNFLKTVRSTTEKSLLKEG
In short: (§2)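 IDO conditions: 6 nM His-IDO, 10 μM L-Trp, 5 μM methylene blue, 20 min, RT. TDO conditions: 1 nM His-TDO, 350 μM L-Trp, 0.4 μM methylene blue, 70 min, RT. Both used pH 6.5 phosphate plus ascorbate/catalase, TCA stop at 50° C, kynurenine readout, nonlinear-regression IC50.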

[3] = target: T3, human IDO (IDO1-expressing HEK293 cells) (Homo sapiens, UniProt P14902); assay: Cell based kynurenine assay, IDO1-expressing HEK293 cell clones; settings: IDO1-expressing HEK293 cells, 24 hours, geometric mean; read-out: HEK293 IDO1 Kynurenine GMean IC50 (μM) (Cellular Assay)
T3 construct: expressed in transfected cells
T3 sequence (P14902 whole entry): as above
In short: as §1

[4] = target: T4, Human Tryptophan 2,3-dioxygenase (TDO) (Homo sapiens, UniProt P48775); assay: Human TDO enzymatic assay (kynurenine level); format: biochemical; settings: 1 nM TDO, 350 μM L-Trp; geometric mean; read-out: TDO GMean: IC50 (μM) (Biochemical Assay)
T4 construct: His tag (N); made in house; host or cells: E. coli
T4 sequence (P48775 whole entry): as the sequence (P48775 whole entry) above
In short: as §2

Structure (SMILES) | IC50 [1] [µM] | IC50 [2] [µM] | IC50 [3] [µM] | IC50 [4] [µM]
O=C(C1CCC1)N1CCC(C(F)(F)C(O)c2c(F)c(Cl)cc3cn[nH]c23)CC1 (centres unmarked) [Compound P-0409, (4-(2-(5-chloro-6-fluoro-1H-indazol-7-yl)-1,1-difluoro-2-hydroxyethyl)piperidin-1-yl)(cyclobutyl) methanone] | 0.0001 to 10 | 0.0001 to 10 | 0.0001 to 10 | 0.0001 to 10
CC(C)(C1CCN(C(=O)CC2CC2)CC1)C(O)c1cc(Cl)cc2cn[nH]c12 (centres unmarked) [Compound P-0410, 1-(4-(1-(5-chloro-1H-indazol-7-yl)-1-hydroxy-2-methylpropan-2-yl)piperidin-1-yl)-2-cyclopropylethan-1-one] | 0.0001 to 10 | 0.0001 to 10 | 0.0001 to 10 | 0.0001 to 10
CC(C)CC(=O)N1CCC(C(C)(C)C(O)c2cc(Cl)cc3cn[nH]c23)CC1 (centres unmarked) [Compound P-0411, 1-(4-(1-(5-chloro-1H-indazol-7-yl)-1-hydroxy-2-methylpropan-2-yl)piperidin-1-yl)-3-methylbutan-1-one] | 0.0001 to 10 | 0.0001 to 10 | 0.0001 to 10 | 0.0001 to 10
CC(C)(C1CCN(C(=O)C2CCC2)CC1)C(O)c1cc(Cl)cc2cn[nH]c12 (centres unmarked) [Compound P-0412, (4-(1-(5-chloro-1H-indazol-7-yl)-1-hydroxy-2-methylpropan-2-yl)piperidin-1-yl)(cyclobutyl) methanone] | 0.0001 to 10 | 0.0001 to 10 | 0.0001 to 10 | 0.0001 to 10
CC(C)C(=O)N1CCC(C(C)(C)C(O)c2cc(Cl)cc3cn[nH]c23)CC1 (centres unmarked) [Compound P-0413, 1-(4-(1-(5-chloro-1H-indazol-7-yl)-1-hydroxy-2-methylpropan-2-yl)piperidin-1-yl)-2-methylpropan-1-one] | 0.0001 to 10 | 0.0001 to 10 | 0.0001 to 10 | 0.0001 to 10
COCC(=O)N1CCC(C(C)(C)C(O)c2cc(Cl)cc3cn[nH]c23)CC1 (centres unmarked) [Compound P-0414, 1-(4-(1-(5-chloro-1H-indazol-7-yl)-1-hydroxy-2-methylpropan-2-yl)piperidin-1-yl)-2-methoxyethan-1-one] | 0.0001 to 10 | 0.0001 to 10 | 0.0001 to 10 | 0.0001 to 10
CS(=O)(=O)NC12CCC(C(O)c3cc(Cl)cc4cn[nH]c34)(CC1)CC2 (centres unmarked) [Compound P-0415, N-(4-((5-chloro-1H-indazol-7-yl)(hydroxy)methyl)bicyclo[2.2.2]octan-1-yl) methanesulfonamide] | > 10 | 0.0001 to 10 | 0.0001 to 10 | 0.0001 to 10
CC(C)(C1CCN(C(=O)C2CC2)CC1)C(O)c1c(F)c(Cl)cc2cn[nH]c12 (centres unmarked) [Compound P-0416, (4-(1-(5-chloro-6-fluoro-1H-indazol-7-yl)-1-hydroxy-2-methylpropan-2-yl)piperidin-1-yl)(cyclopropyl) methanone] | 0.0001 to 10 | 0.0001 to 10 | 0.0001 to 10 | 0.0001 to 10
CC(C)(C1CCN(C(=O)c2ccccc2)CC1)C(O)c1c(F)c(Cl)cc2cn[nH]c12 (centres unmarked) [Compound P-0417, (4-(1-(5-chloro-6-fluoro-1H-indazol-7-yl)-1-hydroxy-2-methylpropan-2-yl)piperidin-1-yl)(phenyl) methanone] | 0.0001 to 10 | 0.0001 to 10 | 0.0001 to 10 | 0.0001 to 10
CC(C)(C1CCN(C(=O)c2cccnc2)CC1)C(O)c1c(F)c(Cl)cc2cn[nH]c12 (centres unmarked) [Compound P-0418, (4-(1-(5-chloro-6-fluoro-1H-indazol-7-yl)-1-hydroxy-2-methylpropan-2-yl)piperidin-1-yl)(pyridin-3-yl)methanone] | 0.0001 to 10 | 0.0001 to 10 | 0.0001 to 10 | 0.0001 to 10
COCCNC(=O)N1CCC(C(C)(C)C(O)c2c(F)c(Cl)cc3cn[nH]c23)CC1 (centres unmarked) [Compound P-0419, 4-(1-(5-chloro-6-fluoro-1H-indazol-7-yl)-1-hydroxy-2-methylpropan-2-yl)-N-(2-methoxyethyl) piperidine-1-carboxamide] | 0.0001 to 10 | 0.0001 to 10 | 0.0001 to 10 | 0.0001 to 10
COCCCNC(=O)N1CCC(C(C)(C)C(O)c2c(F)c(Cl)cc3cn[nH]c23)CC1 (centres unmarked) [Compound P-0420, 4-(1-(5-chloro-6-fluoro-1H-indazol-7-yl)-1-hydroxy-2-methylpropan-2-yl)-N-(3-methoxypropyl) piperidine-1-carboxamide] | 0.0001 to 10 | 0.0001 to 10 | 0.0001 to 10 | 0.0001 to 10
CCC(=O)N1CCC(C(C)(C)C(O)c2c(F)c(Cl)cc3cn[nH]c23)CC1 (centres unmarked) [Compound P-0421, 1-(4-(1-(5-chloro-6-fluoro-1H-indazol-7-yl)-1-hydroxy-2-methylpropan-2-yl)piperidin-1-yl)propan-1-one] | 0.0001 to 10 | 0.0001 to 10 | 0.0001 to 10 | 0.0001 to 10
CC(=O)N1CCC(C(C)(C)[C@@H](O)c2cc(Cl)cc3cn[nH]c23)CC1 [Compound P-0422, (R)-1-(4-(1-(5-chloro-1H-indazol-7-yl)-1-hydroxy-2-methylpropan-2-yl)piperidin-1-yl)ethan-1-one] | 0.0001 to 10 | 0.0001 to 10 | 0.0001 to 10 | 0.0001 to 10
CCC(=O)N1CCC(C(C)(C)[C@@H](O)c2cc(Cl)cc3cn[nH]c23)CC1 [Compound P-0423, (R)-1-(4-(1-(5-chloro-1H-indazol-7-yl)-1-hydroxy-2-methylpropan-2-yl)piperidin-1-yl)propan-1-one] | 0.0001 to 10 | 0.0001 to 10 | 0.0001 to 10 | 0.0001 to 10
CC(C)(C1CCN(C(=O)C2CC2)CC1)[C@@H](O)c1cc(Cl)cc2cn[nH]c12 [Compound P-0424, (R)-(4-(1-(5-chloro-1H-indazol-7-yl)-1-hydroxy-2-methylpropan-2-yl)piperidin-1-yl)(cyclopropyl) methanone] | 0.0001 to 10 | 0.0001 to 10 | > 10 | 0.0001 to 10
COCCNC(=O)N1CCC(C(C)(C)[C@@H](O)c2cc(Cl)cc3cn[nH]c23)CC1 [Compound P-0425, (R)-4-(1-(5-chloro-1H-indazol-7-yl)-1-hydroxy-2-methylpropan-2-yl)-N-(2-methoxyethyl) piperidine-1-carboxamide] | 0.0001 to 10 | 0.0001 to 10 | 0.0001 to 10 | 0.0001 to 10
CC(C)(C1CCN(C(N)=O)CC1)[C@@H](O)c1cc(Cl)cc2cn[nH]c12 [Compound P-0426, (R)-4-(1-(5-chloro-1H-indazol-7-yl)-1-hydroxy-2-methylpropan-2-yl)piperidine-1-carboxamide] | 0.0001 to 10 | 0.0001 to 10 | > 10 | 0.0001 to 10
CNC(=O)N1CCC(C(C)(C)[C@@H](O)c2cc(Cl)cc3cn[nH]c23)CC1 [Compound P-0427, (R)-4-(1-(5-chloro-1H-indazol-7-yl)-1-hydroxy-2-methylpropan-2-yl)-N-methylpiperidine-1-carboxamide] | 0.0001 to 10 | 0.0001 to 10 | 0.0001 to 10 | 0.0001 to 10
CCNC(=O)N1CCC(C(C)(C)[C@@H](O)c2cc(Cl)cc3cn[nH]c23)CC1 [Compound P-0428, (R)-4-(1-(5-chloro-1H-indazol-7-yl)-1-hydroxy-2-methylpropan-2-yl)-N-ethylpiperidine-1-carboxamide] | 0.0001 to 10 | 0.0001 to 10 | > 10 | 0.0001 to 10
